Active and inactive are the calls of the source. No cut-off for these calls is given here.
Experiments:
[1] = molecular target: Replicase polyprotein 1ab (Severe acute respiratory syndrome coronavirus 2) (UniProt P0DTD1); experiment: Inhibition of recombinant SARS-CoV-2 main protease expressed in Escherichia coli BL21 DE3 expression cells using MCA-AVLQSGFR-Lys(Dnp)-Lys-NH2 as substrate at 10 uM incubated for 10 to 15 mins followed by substrate addition by FRET assay relative to control; conditions: time 10-15 min
[2] = molecular target: T1, Replicase polyprotein 1ab (Severe acute respiratory syndrome coronavirus 2, UniProt P0DTD1); experiment: Non-covalent inhibition of SARS-CoV-2 main protease incubated for 50 mins followed by substrate addition by FRET assay
[3] = Stability of compound in stimulated gastric fluid assessed as parent compound remaining measured upto 24 hrs by HPLC analysis; type: ADME; conditions: simulated gastric fluid, read-out: Stability
[4] = molecular target: T1, Replicase polyprotein 1ab; experiment: Binding affinity to recombinant SARS-CoV-2 main protease expressed in Escherichia coli BL21 DE3 expression cells assessed as dissociation constant measured for 60 secs by SPR analysis
[5] = tested on: SARS-CoV-2; experiment: Antiviral activity against wild type SARS-CoV-2 infected in human HeLa cells expressing ACE2 assessed as reduction in viral spike protein level at 10 uM preincubated with cells for 2 hrs followed by viral infection for 1 hr and measured after 24 hrs by Western blot analysis; type: functional, organism-based; conditions: Severe acute respiratory syndrome coronavirus 2, time 27.0 hrs
[6] = tested on: SARS-CoV-2; experiment: Antiviral activity against wild type SARS-CoV-2 infected in human HeLa cells expressing ACE2 assessed as reduction in nucleocapsid protein level at 10 uM preincubated with cells for 2 hrs followed by viral infection for 1 hr and measured after 24 hrs by Western blot analysis; type: functional, organism-based; conditions: Severe acute respiratory syndrome coronavirus 2, time 27.0 hrs
[7] = molecular target: T1, Replicase polyprotein 1ab; experiment: Non-covalent inhibition of SARS-CoV-2 main protease incubated for 10 mins followed by substrate addition by FRET assay
[8] = Solubility of the compound in water incubated for 24 hrs by HPLC analysis; type: physicochemical
[9] = tested on: SARS-CoV-2; experiment: Antiviral activity against wild type SARS-CoV-2 infected in human HeLa cells expressing ACE2 assessed as reduction in nucleocapsid protein mRNA level preincubated with cells for 2 hrs followed by viral infection for 1 hr and measured after 24 hrs by RT-qPCR analysis; type: functional, organism-based; conditions: Severe acute respiratory syndrome coronavirus 2, HeLa
[10] = tested on: SARS-CoV-2; experiment: Antiviral activity against SARS-CoV-2 infected in African green monkey Vero E6 cells assessed as reduction in viral plaque number pre-infected with virus followed by cell addition for 1 hr and measured after 24 hrs by plaque assay; type: functional, organism-based; conditions: Severe acute respiratory syndrome coronavirus 2
[11] = Metabolic stability in mouse liver microsomes assessed as half life at 10 mg/ml preincubated for 5 mins followed by NADPH addition and measured upto 120 mins by HPLC analysis; type: ADME, Microsome; conditions: time < 125 min
[12] = molecular target: T1, Replicase polyprotein 1ab; experiment: Inhibition of recombinant SARS-CoV-2 main protease expressed in Escherichia coli BL21 DE3 expression cells using MCA-AVLQSGFR-Lys(Dnp)-Lys-NH2 as substrate incubated for 10 to 15 mins followed by substrate addition by FRET assay
[13] = Metabolic stability in mouse liver microsomes assessed as intrinsic clearance at 10 mg/ml preincubated for 5 mins followed by NADPH addition and measured upto 120 mins by HPLC analysis; type: ADME, Microsome; conditions: time < 125 min, read-out: CLH
[14] = Stability of compound in stimulated intestinal fluid assessed as parent compound remaining measured upto 24 hrs by HPLC analysis; type: ADME; conditions: simulated intestinal fluid, read-out: Stability
[15] = tested on: SARS-CoV-2; experiment: Antiviral activity against wild type SARS-CoV-2 infected in human HeLa cells expressing ACE2 assessed as reduction in viral spike protein level preincubated with cells for 2 hrs followed by viral infection for 1 hr and measured after 24 hrs by RT-qPCR analysis; type: functional, organism-based; conditions: Severe acute respiratory syndrome coronavirus 2, HeLa
[16] = tested on: SARS-CoV-2; experiment: Antiviral activity against SARS-CoV-2 infected in African green monkey Vero E6 cells assessed as reduction in viral plaque size pre-infected with virus followed by cell addition for 1 hr and measured after 24 hrs by plaque assay; type: functional, organism-based; conditions: Severe acute respiratory syndrome coronavirus 2
[17] = Metabolic stability in mouse liver microsomes assessed as parent compound remaining at 10 mg/ml measured after 120 mins by HPLC analysis; type: ADME, Microsome; conditions: read-out: Stability
[18] = n-Octanol/water partition coefficient, logP of the compound incubated for 12 hrs by HPLC analysis; type: physicochemical
[19] = molecular target: T1, Replicase polyprotein 1ab; experiment: Non-covalent inhibition of SARS-CoV-2 main protease incubated for 30 mins followed by substrate addition by FRET assay
[20] = tested on: SARS-CoV-2; experiment: Antiviral activity against wild type SARS-CoV-2 infected in human Calu-3 assessed as reduction in nucleocapsid protein level at 10 uM preincubated with cells for 2 hrs followed by viral infection for 1 hr and measured after 24 hrs by Western blot analysis; type: functional, organism-based; conditions: Severe acute respiratory syndrome coronavirus 2, time 27.0 hrs
[21] = tested on: SARS-CoV-2; experiment: Antiviral activity against wild type SARS-CoV-2 infected in human Calu-3 assessed as reduction in viral spike protein level at 10 uM preincubated with cells for 2 hrs followed by viral infection for 1 hr and measured after 24 hrs by RT-qPCR analysis; type: functional, organism-based; conditions: Severe acute respiratory syndrome coronavirus 2, time 27.0 hrs
[22] = tested on: SARS-CoV-2; experiment: Antiviral activity against wild type SARS-CoV-2 infected in human Calu-3 cells assessed as reduction in viral spike protein level at 10 uM preincubated with cells for 2 hrs followed by viral infection for 1 hr and measured after 24 hrs by Western blot analysis; type: functional, organism-based; conditions: Severe acute respiratory syndrome coronavirus 2, time 27.0 hrs
[23] = tested on: SARS-CoV-2; experiment: Antiviral activity against wild type SARS-CoV-2 infected in human Calu-3 cells assessed as reduction in nucleocapsid protein mRNA level at 10 uM preincubated with cells for 2 hrs followed by viral infection for 1 hr and measured after 24 hrs by RT-qPCR analysis; type: functional, organism-based; conditions: Severe acute respiratory syndrome coronavirus 2, time 27.0 hrs

## O=C(O)CCCCCN1C(=O)/C(=C2/C(=O)Nc3ccccc32)c2ccccc21
[1]
  inhibition: 59.8%

## O=C(O)CCCCCCCCCN1C(=O)/C(=C2/C(=O)Nc3ccccc32)c2ccccc21
[1]
  inhibition: 71.2%

## COc1ccc2c(c1)/C(=C1\C(=O)N(C)c3ccccc31)C(=O)N2
[1]
  inhibition: 70.7%

## CN1C(=O)/C(=C2/C(=O)N(CCCN)c3ccc(Br)cc32)c2ccccc21.Cl
[2]
  IC50: 1340 nM
[3]
  remaining at 24 h: 95.3%
[4]
  Kd: 16800 nM
[1]
  inhibition: 90.5%
[5]
  Activity: Active
[6]
  Activity: Active
[7]
  IC50: 1300 nM
[8]
  solubility at 24 h: 2490 µg/mL
[9]
  EC50: 2660 nM
[10]
  Activity: Active
[11]
  half-life: 8.25 h
[12]
  IC50: 1350 nM
[13]
  microsomal CLint: 1.4 µL/min/mg
[14]
  remaining at 24 h: 73.6%
[15]
  EC50: 2740 nM
[16]
  Activity: Active
[17]
  remaining at 2 h: 84%
[18]
  logP at 12 h: 0.29
[19]
  IC50: 1150 nM

## CN1C(=O)C2(CC=CCC23C(=O)Nc2ccccc23)c2ccccc21 (stereo not given)
[1]
  inhibition: 11.9%

## O=C1Nc2ccccc2/C1=C1\C(=O)Nc2ccccc21 [ISOINDIGO]
[1]
  inhibition: 85.3%
[12]
  IC50: 1200 nM

## CN1C(=O)/C(=C2/C(=O)Nc3ccccc32)c2cc([N+](=O)[O-])ccc21
[1]
  inhibition: 32.8%
[20]
  Activity: Active

## COc1ccc2c(c1)/C(=C1\C(=O)Nc3ccccc31)C(=O)N2CCCCCCCC(=O)O
[1]
  inhibition: 89.1%
[12]
  IC50: 1610 nM

## O=C1Nc2ccccc2/C1=C1\C(=O)N(CCBr)c2ccccc21
[1]
  inhibition: 97.4%

## CN1C(=O)/C(=C2/C(=O)N(CCNC(=O)OC(C)(C)C)c3ccccc32)c2ccccc21
[1]
  inhibition: 52.6%

## CCOC(=O)CCCCCCCCCN1C(=O)/C(=C2/C(=O)Nc3ccccc32)c2cc(Br)ccc21
[1]
  inhibition: 21.2%

## CN1C(=O)/C(=C2/C(=O)N(C)c3ccccc32)c2ccccc21
[1]
  inhibition: 25.7%

## CN1C(=O)/C(=C2/C(=O)Nc3ccccc32)c2cc(Cl)ccc21
[1]
  inhibition: 40.8%

## CN1CCN(CCN2C(=O)/C(=C3/C(=O)Nc4ccccc43)c3ccccc32)CC1
[1]
  inhibition: 91.3%

## CN1C(=O)/C(=C2/C(=O)Nc3ccccc32)c2cc(F)ccc21
[1]
  inhibition: 82.5%

## CN1C(=O)/C(=C2/C(=O)Nc3ccccc32)c2cc(Br)ccc21
[1]
  inhibition: 32.4%

## O=C(O)CCCCCCCN1C(=O)/C(=C2/C(=O)Nc3ccccc32)c2cc(O)ccc21
[1]
  inhibition: 63.7%

## CN1C(=O)C2(CC=CCC23C(=O)Nc2ccc(Br)cc23)c2ccccc21 (stereo not given)
[1]
  inhibition: 6%

## CN1C(=O)/C(=C2/C(=O)Nc3ccc(Br)cc32)c2ccccc21
[1]
  inhibition: 94.5%

## CN1C(=O)/C(=C2/C(=O)Nc3ccccc32)c2ccccc21 [MEISOINDIGO]
[1]
  inhibition: 50.6%
[12]
  IC50: 15600 nM

## COc1ccc2c(c1)C1(CC=CCC13C(=O)Nc1ccccc13)C(=O)N2C (stereo not given)
[1]
  inhibition: 4.1%

## O=C(O)CCCCCCCN1C(=O)/C(=C2/C(=O)Nc3ccccc32)c2ccccc21
[1]
  inhibition: 73.8%

## CC(C)(C)[C@H](NC(=O)C(F)(F)F)C(=O)N1C[C@H]2[C@@H]([C@H]1C(=O)N[C@H](C#N)C[C@@H]1CCNC1=O)C2(C)C
[15]
  EC50: 16900 nM

## CN1C(=O)/C(=C2/C(=O)Nc3ccccc32)c2cc(O)ccc21
[21]
  Activity: Active
[1]
  inhibition: 84.2%
[22]
  Activity: Active
[23]
  Activity: Active

## COc1ccc2c(c1)/C(=C1\C(=O)Nc3ccccc31)C(=O)N2C
[1]
  inhibition: 91.4%

## O=C(O)CCCCCCCN1C(=O)/C(=C2/C(=O)Nc3ccccc32)c2cc(Br)ccc21
[21]
  Activity: Active
[1]
  inhibition: 97.8%
[12]
  IC50: 1210 nM
[22]
  Activity: Active
[20]
  Activity: Active
[23]
  Activity: Active

## O=C(O)CCCCCCCCCCCN1C(=O)/C(=C2/C(=O)Nc3ccccc32)c2ccccc21
[1]
  inhibition: 72.9%

## CN1C(=O)/C(=C2/C(=O)N(CCN3CCCC3)c3ccccc32)c2ccccc21.Cl
[3]
  remaining at 24 h: 95.2%
[4]
  Kd: 700 nM
[1]
  inhibition: 86.5%
[5]
  Activity: inactive
[6]
  Activity: inactive
[8]
  solubility at 24 h: 17300 µg/mL
[12]
  IC50: 1150 nM
[14]
  remaining at 24 h: 85.3%
[18]
  logP at 12 h: 0.7

## CCOC(=O)CCCCCCCN1C(=O)/C(=C2/C(=O)Nc3ccccc32)c2cc(Br)ccc21
[1]
  inhibition: 25.2%

## O=C(O)CCCCCCCCCN1C(=O)/C(=C2/C(=O)Nc3ccccc32)c2cc(Br)ccc21
[1]
  inhibition: 76.8%

## O=C1Nc2ccccc2/C1=C1\C(=O)N(CCN2CCOCC2)c2ccccc21
[1]
  inhibition: 83.9%

## CN1C(=O)/C(=C2/C(=O)N(CCN)c3ccccc32)c2cc(Br)ccc21.Cl
[2]
  IC50: 1490 nM
[3]
  remaining at 24 h: 95%
[4]
  Kd: 1270 nM
[1]
  inhibition: 85.8%
[5]
  Activity: Active
[6]
  Activity: Active
[7]
  IC50: 1960 nM
[8]
  solubility at 24 h: 3810 µg/mL
[9]
  EC50: 2030 nM
[10]
  Activity: Active
[12]
  IC50: 1090 nM
[14]
  remaining at 24 h: 78%
[15]
  EC50: 1760 nM
[16]
  Activity: Active
[18]
  logP at 12 h: 0.59
[19]
  IC50: 1520 nM
